Data as given in ChEMBL document CHEMBL5726056, “2-oxo-3,4-dihydroquinolin-6-yl sulphonamide CPDS and their use as plant growth regulators” (2019).

What was measured:
[1] = (§1) PP2C Activity Assay: HAB1 and PYL proteins were expressed and purified as described in Park et al. ((2009) Science 324(5930):1068-1071), with minor modifications. To obtain GST-HAB1, the HAB1 cDNA was cloned into pGex-2T. Expression was conducted in BL21[DE3]pLysS host cells. Transformed cells were pre-cultured overnight, transferred to LB medium and cultured at 30° C. to culture A600 of ¿0.5.The culture was then cooled on ice and MnCl2 added to 4 mM and IPTG added to 0.3 mM. After 16 hours incubation at 15° C., cells were harvested and recombinant proteins were purified on glutathione agarose as described in Park et al. To obtain 6×His-PYL receptor fusion proteins, expression constructs previously described by Okamoto et al. 2013, (PNAS 110(29): 12132-12137) were used. ABA receptors were expressed and purified as described above.For the values shown in Table B5, PP2C activity assays using recombinant receptors and PP2Cs were carried out as follows: purified proteins were pre-incubated in 160 μl assay buffer containing 100 mM Tris-HCl-pH7.9, 100 mM NaCl, 3 μg bovine serum albumin, 0.1% 2-mercaptoethanol, 1 mM MnCl2 with ABA or agonists (compounds of the present invention) for 30 minutes at room temperature. […]
[2] = as §1; remark: listed apart in the source

CCN1C(=O)CC(C)c2cc(NS(=O)(=O)Cc3ccc(C4CC4)cc3)ccc21 (configuration not stated)
IC50 [1]: 101 nM
IC50 [2]: 200 nM
